In general, IC50 refers to the point on the concentration scale where inhibition reaches its midpoint.

Each structure is given as a SMILES string.

In this test the test system is YAP-TEAD. As to the kind of experiment: TEAD inhibition, Hippo Pathway TEAD Reporter MCF-7 luciferase assay. Type of test: cell-based. The following applies: Homo sapiens, MCF7, 24 h, Hippo Pathway TEAD Reporter MCF-7 cells, luciferase activity after 24 h; read-out: IC50 of the test compounds on YAP-TEAD inhibition (Group). The method in brief:
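IC50 derived from ONE-Glo luciferase luminescence after 24 h compound exposure (11 concentrations in quadruplicate, 0.1% DMSO control). Reporter: MCF-7 line expressing firefly luciferase under TEAD elements, constitutively activated by nuclear YAP1.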
For the compound `CCN1C(=O)CC[C@@H]1C(=O)Nc1cc(Oc2ccc(C(F)(F)F)cn2)cc2c1OCC2` [Compound 170, (R)-1-Ethyl-5-oxo-N-(5-((5-(trifluoromethyl)pyridin-2-yl)oxy)-2,3-dihydro-benzofuran-7-yl)pyrrolidine-2-carboxamide], the IC50 is less than 50 nM.

For `CCN1C(=O)CC[C@H]1C(=O)Nc1cc(Oc2ccc(C(F)(F)F)cn2)cc2c1OCC2` [Compound 171, (S)-1-Ethyl-5-oxo-N-(5-((5-(trifluoromethyl)pyridin-2-yl)oxy)-2,3-dihydro-benzofuran-7-yl)pyrrolidine-2-carboxamide], the IC50 is less than 50 nM.

For the compound `C[C@H]1Cc2cc(Oc3ccc(C(F)(F)F)cn3)cc(NC(=O)[C@H]3CCC(=O)N3C)c2O1` [Compound 172, (2R)-1-Methyl-N-(2-methyl-5-((5-(trifluoromethyl)pyridin-2-yl)oxy)-2,3-di-hydrobenzofuran-7-yl)-5-oxopyrrolidine-2-carboxamide], the IC50 was 50 to 300 nM.

As for `C[C@@H]1Cc2cc(Oc3ccc(C(F)(F)F)cn3)cc(NC(=O)[C@H]3CCC(=O)N3C)c2O1` [Compound 173, (2R)-1-Methyl-N-(2-methyl-5-((5-(trifluoromethyl)pyridin-2-yl)oxy)-2,3-di-hydrobenzofuran-7-yl)-5-oxopyrrolidine-2-carboxamide], the half-maximal inhibitory concentration (IC50) was 50 to 300 nM.

`CN1C(=O)CC[C@H]1C(=O)Nc1cc(Oc2ccc(C(F)(F)F)cn2)cc2c1OCCC2` [Compound 174, (S)-1-Methyl-5-oxo-N-(6-((5-(trifluoromethyl)pyridin-2-yl)oxy)chroman-8-yl)pyrrolidine-2-carboxamide]: the IC50 fell in the range of 50 to 300 nM.

Take `CN1C(=O)CC[C@@H]1C(=O)Nc1cc(Oc2ccc(C(F)(F)F)cn2)cc2c1OCCC2` [Compound 175, (R)-1-Methyl-5-oxo-N-(6-((5-(trifluoromethyl)pyridin-2-yl)oxy)chroman-8-yl)pyrrolidine-2-carboxamide]: the concentration for half-maximal inhibition (IC50) was less than 50 nM.

In the case of `CN1C(=O)NCC1C(=O)Nc1cc(Oc2ccc(C(F)(F)F)cn2)cc2c1OCCC2` (stereo not drawn) [Compound 176, 3-Methyl-2-oxo-N-(6-((5-(trifluoromethyl)pyridin-2-yl)oxy)chroman-8-yl)-imidazolidine-4-carboxamide], the half-maximal inhibitory concentration (IC50) is less than 50 nM.

Consider `CN1C(=O)CCC1C(=O)Nc1cc(Oc2ccc(C(F)(F)F)cn2)cc2c1OCCC2` (stereo not drawn) [Compound 177, 1-Methyl-5-oxo-N-(6-((5-(trifluoromethyl)pyridin-2-yl)oxy)chroman-8-yl)-pyrrolidine-2-carboxamide], for which the half-maximal inhibitory concentration (IC50) is less than 50 nM.

As to `CN1C(=O)NCC1C(=O)Nc1cc(Oc2ccc(C(F)(F)F)cn2)cc2c1OCO2` (stereo not drawn) [Compound 178, 3-Methyl-2-oxo-N-(6-((5-(trifluoromethyl)pyridin-2-yl)oxy)benzo[d]-[1,3]dioxol-4-yl)imidazolidine-4-carboxamide], the IC50 is less than 50 nM.

Regarding `O=C(Nc1cc(Oc2ccc(C(F)(F)F)cn2)cc2c1OCO2)C1CCC(=O)N1C1CC1` (stereo not drawn) [Compound 179, 1-Cyclopropyl-5-oxo-N-(6-((5-(trifluoromethyl)pyridin-2-yl)oxy)benzo[d]-[1,3]dioxol-4-yl)pyrrolidine-2-carboxamide], the half-maximal inhibitory concentration (IC50) was less than 50 nM.

In the case of `CN1C(=O)NC[C@H]1C(=O)Nc1cc(Oc2ccc(C(F)(F)F)cn2)cc2c1OCO2` [Compound 180, (S)-3-Methyl-2-oxo-N-(6-((5-(trifluoromethyl)pyridin-2-yl)oxy)benzo-[d][1,3]dioxol-4-yl)imidazolidine-4-carboxamide], the IC50 was less than 50 nM.

As to `CN1C(=O)NC[C@@H]1C(=O)Nc1cc(Oc2ccc(C(F)(F)F)cn2)cc2c1OCO2` [Compound 181, (R)-3-Methyl-2-oxo-N-(6-((5-(trifluoromethyl)pyridin-2-yl)oxy)benzo-[d][1,3]dioxol-4-yl)imidazolidine-4-carboxamide], the half-maximal inhibitory concentration (IC50) is 301 to 2000 nM.

Consider `CN1C(=O)CCC1C(=O)Nc1cc(Oc2ccc(C(F)(F)F)cc2)cc2ccoc12` (stereo not drawn) [Compound 185, 1-Methyl-5-oxo-N-(5-(4-(trifluoromethyl)phenoxy)benzofuran-7-yl)pyrrolidine-2-carboxamide], for which the IC50 is less than 50 nM.

In the case of `CN1C(=O)NCC1C(=O)Nc1cc(Oc2ccc(C(F)(F)F)cc2)cc2c1OCO2` (stereo not drawn) [Compound 186, 3-Methyl-2-oxo-N-(6-(4-(trifluoromethyl)phenoxy)benzo[d][1,3]dioxol-4-yl)-imidazolidine-4-carboxamide], the half-inhibitory concentration (IC50) is less than 50 nM.

On to `O=C1CC(C(=O)Nc2cc(Oc3ccc(C(F)(F)F)cc3)cc3c2OCC3)CCN1` (stereo not drawn) [Compound 187, 2-Oxo-N-(5-(4-(trifluoromethyl)phenoxy)-2,3-dihydrobenzofuran-7-yl)-piperidine-4-carboxamide], for which the IC50 was less than 50 nM.

As to `CNC(=O)CN1C(=O)CCC1C(=O)Nc1cc(Oc2ccc(C(F)(F)F)cc2)cc2c1OCC2` (stereo not drawn) [Compound 188, 1-(2-(Methylamino)-2-oxoethyl)-5-oxo-N-(5-(4-(trifluoromethyl)phenoxy)-2,3-dihydrobenzofuran-7-yl)pyrrolidine-2-carboxamide], the 50% inhibitory concentration (IC50) fell in the range of 301 to 2000 nM.

In the case of `NC(=O)CN1C(=O)CCC1C(=O)Nc1cc(Oc2ccc(C(F)(F)F)cc2)cc2c1OCC2` (stereo not drawn) [Compound 189, 1-(2-Amino-2-oxoethyl)-5-oxo-N-(5-(4-(trifluoromethyl)phenoxy)-2,3-dihydro-benzofuran-7-yl)pyrrolidine-2-carboxamide], the IC50 was less than 50 nM.

On to `O=C1CCC(C(=O)Nc2cc(OC3CCC(F)(F)CC3)cc3c2OCC3)CN1` (stereo not drawn) [Compound 190, N-(5-((4,4-Difluorocyclohexyl)oxy)-2,3-dihydrobenzofuran-7-yl)-6-oxo-piperidine-3-carboxamide], for which the IC50 lay in the range of 301 to 2000 nM.

As to `O=C1CCC(C(=O)Nc2cc(OC3CCC(F)(F)CC3)cc3c2OCCO3)CN1` (stereo not drawn) [Compound 191, N-(7-((4,4-Difluorocyclohexyl)oxy)-2,3-dihydrobenzo[b][1,4]dioxin-5-yl)-6-oxopiperidine-3-carboxamide], the IC50 lay within 301 to 2000 nM.

With `CN1C(=O)NCC1C(=O)Nc1cc(Oc2ccc(C(F)(F)F)cc2)cc2c1OCCO2` (stereo not drawn) [Compound 192, 3-Methyl-2-oxo-N-(7-(4-(trifluoromethyl)phenoxy)-2,3-dihydrobenzo[b][1,4]-dioxin-5-yl)imidazolidine-4-carboxamide], the IC50 is less than 50 nM.

Take `CN1C(=O)NCC1C(=O)Nc1cc(Oc2ccc(C(F)(F)F)cn2)cc2cn[nH]c12` (stereo not drawn) [Compound 193, 3-Methyl-2-oxo-N-(5-((5-(trifluoromethyl)pyridin-2-yl)oxy)-1H-indazol-7-yl)-imidazolidine-4-carboxamide]: the IC50 lay within 301 to 2000 nM.

For `CN1C(=O)NC[C@@H]1C(=O)Nc1cc(Oc2ccc(C(F)(F)F)cn2)ccc1F` [Compound 196, (R)—N-(2-Fluoro-5-((5-(trifluoromethyl)pyridin-2-yl)oxy)phenyl)-3-methyl-2-oxoimidazolidine-4-carboxamide], the concentration for half-maximal inhibition (IC50) was less than 50 nM.

Regarding `CN1C(=O)OCC1C(=O)Nc1cc(Oc2ccc(C(F)(F)F)cn2)ccc1F` (stereo not drawn) [Compound 197, N-(2-Fluoro-5-((5-(trifluoromethyl)pyridin-2-yl)oxy)phenyl)-3-methyl-2-oxooxazolidine-4-carboxamide], the IC50 fell in the range of 50 to 300 nM.

`CN1C(=O)OC[C@@H]1C(=O)Nc1cc(Oc2ccc(C(F)(F)F)cn2)ccc1F` [Compound 198, (R)—N-(2-Fluoro-5-((5-(trifluoromethyl)pyridin-2-yl)oxy)phenyl)-3-methyl-2-oxooxazolidine-4-carboxamide]: the IC50 is 50 to 300 nM.

Take `CN1C(=O)OC[C@H]1C(=O)Nc1cc(Oc2ccc(C(F)(F)F)cn2)ccc1F` [Compound 199, (S)—N-(2-Fluoro-5-((5-(trifluoromethyl)pyridin-2-yl)oxy)phenyl)-3-methyl-2-oxooxazolidine-4-carboxamide]: the half-maximal inhibitory concentration (IC50) fell in the range of 301 to 2000 nM.

Take `COc1ccc(Oc2cc(C(F)(F)F)ccn2)cc1NC(=O)C1CNC(=O)N1C` (stereo not drawn) [Compound 200, N-(2-Methoxy-5-((4-(trifluoromethyl)pyridin-2-yl)oxy)phenyl)-3-methyl-2-oxoimidazolidine-4-carboxamide]: the half-maximal inhibitory concentration (IC50) was 50 to 300 nM.

Consider `COc1ccc(Oc2cc(C(F)(F)F)ccn2)cc1NC(=O)C1CCC(=O)N1C` (stereo not drawn) [Compound 201, N-(2-Methoxy-5-((4-(trifluoromethyl)pyridin-2-yl)oxy)phenyl)-1-methyl-5-oxopyrrolidine-2-carboxamide], for which the IC50 lay within 301 to 2000 nM.

On to `COc1ccc(Oc2ccc(F)cn2)cc1NC(=O)C1CCC(=O)N1C` (stereo not drawn) [Compound 202, N-(5-((5-Fluoropyridin-2-yl)oxy)-2-methoxyphenyl)-1-methyl-5-oxopyrrolidine-2-carboxamide], for which the half-maximal inhibitory concentration (IC50) lay within 301 to 2000 nM.

Regarding `COc1ccc(Oc2ccc(Cl)cn2)cc1NC(=O)C1CCC(=O)N1C` (stereo not drawn) [Compound 203, N-(5-((5-Chloropyridin-2-yl)oxy)-2-methoxyphenyl)-1-methyl-5-oxo-pyrrolidine-2-carboxamide], the half-inhibitory concentration (IC50) lay within 301 to 2000 nM.

Consider `COc1ccc(COC2CCC(F)(F)CC2)cc1NC(=O)C1CCC(=O)N1C` (stereo not drawn) [Compound 205, N-(5-(((4,4-Difluorocyclohexyl)oxy)methyl)-2-methoxyphenyl)-1-methyl-5-oxopyrrolidine-2-carboxamide], for which the half-inhibitory concentration (IC50) lay in the range of 301 to 2000 nM.

Take `COc1ccc(OCC2CCC(F)(F)CC2)cc1NC(=O)C1CCC(=O)N1C` (stereo not drawn) [Compound 206, N-(5-((4,4-Difluorocyclohexyl)methoxy)-2-methoxyphenyl)-1-methyl-5-oxopyrrolidine-2-carboxamide]: the IC50 is less than 50 nM.

Turning to `COc1ccc(OC2CCCC(F)(F)CC2)cc1NC(=O)[C@@H]1CCC(=O)N1C` (stereo partly drawn) [Compound 207, (2S)—N-(5-((4,4-Difluorocycloheptyl)oxy)-2-methoxyphenyl)-1-methyl-5-oxopyrrolidine-2-carboxamide], the IC50 was 50 to 300 nM.

As for `COc1ccc(OC2CCC(C(F)(F)F)CC2)cc1NC(=O)[C@H]1COC(=O)N1C` (stereo partly drawn) [Compound 208, (R)—N-(2-Methoxy-5-((4-(trifluoromethyl)cyclohexyl)oxy)phenyl)-3-methyl-2-oxooxazolidine-4-carboxamide], the half-maximal inhibitory concentration (IC50) is less than 50 nM.

The record behind these values is patent US20240246908A1 (ORION CORPORATION, priority 2021, published 2024).
